Assay results from patent publication US20090232909A1, “Method for determining physiological effects of hemoglobin” (priority 1999, published 2009).
“Also recorded” adds a separate entry of the source.

Tests used:
[1] = test system: inside-out vesicles (IOV); assay: Transnitrosylation of inside-out vesicles (IOV) by SNO-Hb; format: biochemical; conditions: IOVs (or source RBCs) treated before incubation with SNO-Hb
Protocol: RBCs derived from fresh venous blood and suspended in oxygen-purged phosphate-buffered saline (PBS) were exposed in gas-tight vials to NO, added as aliquots of oxygen-purged NO-saturated PBS to yield the specified NO:heme ratios based on spectrophotometric assessment of heme content. Exposure to NO was for 5 mins followed by rinses in PBS at 21% O2. RBCs were lysed in 10 mM MOPS, 0.1 mM DTPA, pH 7, followed by centrifugation at 20,000×g for 10 mins to produce membrane and cytosolic fractions, which were solubilized in 1% TX-100. Quantification of NO groups was by photolysis/chemiluminescence (McMahon, T. J. & Stamler, J. S., Meth. Enzymol. 301:99-114, 1999). SNO content was measured as NO removed by treating sample aliquots for 5 mins with HgCl2 at 5-fold molar excess over estimated thiol content (Gow, A. J. & Stamler, J. S., Nature 391:169-173, 1998; Gow, A. J. et al., Proc. Natl. Acad. Sci. USA 96:9027-9032, 1999; McMahon, T. J. & Stamler, J. S., Meth. Enzymol. 301:99-114, 1999). IOVs were prepared from outdated RBCs following Kondo (Kondo, T., Meth. Enzymol. 171:217-225, 1989) and stripped of peripheral membrane-bound proteins by washing for 60 mins in 0.5 M NaCl/100 mM Tris at pH 8. Chymotrypsin treatment of IOVs was for 15 mins at pH 7 and 37° C. with 5 U enzyme/mg IOV protein. For transnitrosylation, IOVs were incubated with SNO-Hb (50 nmoles SNO-Hb/mg IOV protein, about 10-fold excess over AE1) for 15 mins at pH 7 and 37° C. SNO-Hb was prepared from free or immobilized HbA (Apex) by selective S-nitrosylation of cysβ93 with S-nitroso-cysteine (Jia, L. et al., Nature 380:221-226, 1996; Stamler, J. S. et al., Science 276:2034-2037, 1997; McMahon, T. J. & Stamler, J. S., Meth. Enzymol. 301:99-114, 1999). Hb was immobilized on cyanogen bromide-activated Sepharose 4b.
Immunoprecipitation was carried out by incubation of TX-100 or NP-40 extracts with antibodies followed by protein G-Sepharose. […] Binding of SNO-Hb to IOVs was assessed in 10 mM MOPS buffer, pH 7, at room temperature and 21% O2. Incubation was for 15 mins before IOVs were solubilized in 1% TX-100, and heme content was assessed spectrophotometrically. When employed, RBCs were treated for 60 mins with DIDS (0.1 mM; calculated 10-fold molar excess over AE1), then washed thoroughly to remove unreacted DIDS. […]
IOVs incubated with SNO-Hb and washed at pH 8 to remove bound Hb incorporated about 450 pmol NO/milligram of TX-100-extracted IOV protein (FIG. 7D). […] It is important to note that SNO was not detected in extracts of IOVs exposed to NO in the absence of Hb (not shown). […] Following centrifugal separation, washes at pH 7 and solubilization in TX-100, extracts of IOVs were free of Hb as assessed by spectrophotometric detection of heme.

[2] = target: Hb (Homo sapiens, UniProt P68871+P69905); assay: metHb production by UV-visible difference spectroscopy after NO addition to variously oxygenated Hb; format: biochemical; set-up: purchased Apex Bioscience (Research Triangle Park, N.C.); conditions: 10 mM phosphate
Hb, sequence (P69905 2-142 limits assumed): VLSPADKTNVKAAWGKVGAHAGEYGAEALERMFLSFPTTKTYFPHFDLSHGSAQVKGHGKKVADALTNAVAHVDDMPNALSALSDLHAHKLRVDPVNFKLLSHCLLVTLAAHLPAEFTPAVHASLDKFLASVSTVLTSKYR
Hb, sequence (P68871 2-147 limits assumed): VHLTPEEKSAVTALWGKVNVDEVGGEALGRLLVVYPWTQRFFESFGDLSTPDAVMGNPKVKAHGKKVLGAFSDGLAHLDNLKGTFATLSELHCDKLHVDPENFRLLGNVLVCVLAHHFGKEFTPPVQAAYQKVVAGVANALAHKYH
Protocol: Nitroso/nitrosyl derivatives of Hb were measured using a photolysis-chemiluminescence technique [6-fold excess HgCl2 over protein was added to displace S-nitrosothiol (SNO) (Stamler, J. S., et al., Science, 276:2034-2037, 1997)]. Samples were kept on ice for a period of 5 minutes to 2 hours before analyses. MetHb was monitored by UV-visible spectroscopy as the difference absorption above the linear baseline (600-700 nm), and EPR (below).
The samples used in FIGS. 1A-1D were assayed for metHb production by UV-visible difference spectroscopy. The data are normalized to added [NO]. As in FIGS. 1A-1D: open diamonds, 10 mM phosphate; open circles, 10 mM phosphate plus borate; open squares, 10 mM phosphate plus SOD; filled circles and filled squares, 100 mM phosphate. The dotted (10 mM phosphate) and dashed (100 mM phosphate) lines are calculated by using Eq. 5 and Fe(II)NO yields in FIGS. 1C and 1D, respectively. […] Systematic deviations are most pronounced in low phosphate at high oxygen saturation—i.e., under physiological conditions.

[3] = test system: myoglobin; conditions: cited from earlier work

Row | SMILES | effect of prior treatment on transfer of NO groups from SNO-Hb to IOVs [1] | shortfall in the Fe(III) and Fe(II)NO products [2] | rate of NO binding to ferrous myoglobin [3] | rate of NO oxidation of oxymyoglobin [3]
1 | O=S(=O)(O)c1cc(N=C=S)ccc1C=Cc1ccc(N=C=S)cc1S(=O)(=O)O [DIDS, 4,4′-diisothiocyanatostilbene-2,2′-disulfonic acid] | reduced significantly; also recorded: greatly reduced |  |  | 
2 | [N]=O [NO, nitric oxide] |  | ≤ 20 % of added [NO]0 | 2.5e+07 M⁻¹ s⁻¹ | 3.4×10^7 M^−1 sect^−1
